# Measured values reported in patent publication US8680012B2, “4-phenyl-pyrane-3,5-diones,4-phenyl-thiopyrane-3,6-diones and cyclohexanetriones as novel herbicides” (Syngenta Crop Protection LLC, priority 2006, dated 2014).
# Columns and labels:
# Type in all cases: in vivo
# Setaria faberi (SETFA) [1] = test: Example B pre-emergence herbicidal activity, glasshouse pot test; conditions: 312 h, evaluated after 13 days, read-out: Pre-emergence activity SETFA (100=total damage to plant; 0=no damage to plant); for pest or weed control at 1000 g/ha: rate 1000 g/ha; for pest or weed control at 250 g/ha: rate 250 g/ha
# Summary of the method: (§1)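 Damage rated 13 days after treatment on a 0 (no damage) to 100 (total damage) scale. Spray of acetone/water (50:50) with 0.5% Tween 20 went onto soil-sown pots at day 1 (pre-emergence) or day 8 (post-emergence); glasshouse kept at 24/16 °C, 14 h light, 65% humidity.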
# Avena fatua (AVEFA) [2] = test: as above; conditions: 312 h, evaluated after 13 days, read-out: Pre-emergence activity AVEFA (100=total damage to plant; 0=no damage to plant); for pest or weed control at 1000 g/ha: rate 1000 g/ha; for pest or weed control at 250 g/ha: rate 250 g/ha
# Summary of the method: as §1
# [3] = test system: Amaranthus retroflexus (AMARE); test: as above; conditions: 312 h, evaluated after 13 days, read-out: Pre-emergence activity AMARE (100=total damage to plant; 0=no damage to plant); for pest or weed control at 1000 g/ha: rate 1000 g/ha; for pest or weed control at 250 g/ha: rate 250 g/ha
# Summary of the method: as §1
# [4] = test system: Echinochloa crus-galli (ECHCG); test: as above; conditions: 312 h, evaluated after 13 days, read-out: Pre-emergence activity ECHCG (100=total damage to plant; 0=no damage to plant); for pest or weed control at 1000 g/ha: rate 1000 g/ha; for pest or weed control at 250 g/ha: rate 250 g/ha
# Summary of the method: as §1
# Solanum nigrum (SOLNI) [5] = test: as above; conditions: 312 h, evaluated after 13 days, read-out: Pre-emergence activity SOLNI (100=total damage to plant; 0=no damage to plant); for pest or weed control at 1000 g/ha: rate 1000 g/ha; for pest or weed control at 250 g/ha: rate 250 g/ha
# Summary of the method: as §1
# [6] = test system: Alopecurus myosuroides (ALOMY); test: as above; conditions: 312 h, evaluated after 13 days, read-out: Pre-emergence activity ALOMY (100=total damage to plant; 0=no damage to plant); for pest or weed control at 1000 g/ha: rate 1000 g/ha; for pest or weed control at 250 g/ha: rate 250 g/ha
# Summary of the method: as §1
# Setaria faberi (SETFA) [7] = test: Example B post-emergence herbicidal activity, glasshouse pot test; conditions: 312 h, evaluated after 13 days, read-out: Post-emergence activity SETFA (100=total damage to plant; 0=no damage to plant); for pest or weed control at 1000 g/ha: rate 1000 g/ha; for pest or weed control at 250 g/ha: rate 250 g/ha
# Summary of the method: as §1
# Avena fatua (AVEFA) [8] = test: as above; conditions: 312 h, evaluated after 13 days, read-out: Post-emergence activity AVEFA (100=total damage to plant; 0=no damage to plant); for pest or weed control at 1000 g/ha: rate 1000 g/ha; for pest or weed control at 250 g/ha: rate 250 g/ha
# Summary of the method: as §1
# [9] = test system: Amaranthus retroflexus (AMARE); test: as above; conditions: 312 h, evaluated after 13 days, read-out: Post-emergence activity AMARE (100=total damage to plant; 0=no damage to plant); for pest or weed control at 1000 g/ha: rate 1000 g/ha; for pest or weed control at 250 g/ha: rate 250 g/ha
# Summary of the method: as §1
# [10] = test system: Echinochloa crus-galli (ECHCG); test: as above; conditions: 312 h, evaluated after 13 days, read-out: Post-emergence activity ECHCG (100=total damage to plant; 0=no damage to plant); for pest or weed control at 1000 g/ha: rate 1000 g/ha; for pest or weed control at 250 g/ha: rate 250 g/ha
# Summary of the method: as §1
# Solanum nigrum (SOLNI) [11] = test: as above; conditions: 312 h, evaluated after 13 days, read-out: Post-emergence activity SOLNI (100=total damage to plant; 0=no damage to plant); for pest or weed control at 1000 g/ha: rate 1000 g/ha; for pest or weed control at 250 g/ha: rate 250 g/ha
# Summary of the method: as §1
# [12] = test system: Alopecurus myosuroides (ALOMY); test: as above; conditions: 312 h, evaluated after 13 days, read-out: Post-emergence activity ALOMY (100=total damage to plant; 0=no damage to plant); for pest or weed control at 1000 g/ha: rate 1000 g/ha; for pest or weed control at 250 g/ha: rate 250 g/ha
# Summary of the method: as §1
SMILES,pest or weed control at 1000 g/ha (Setaria faberi (SETFA) [1]) [%],pest or weed control at 1000 g/ha (Avena fatua (AVEFA) [2]) [%],pest or weed control at 1000 g/ha [3] [%],pest or weed control at 1000 g/ha [4] [%],pest or weed control at 1000 g/ha (Solanum nigrum (SOLNI) [5]) [%],pest or weed control at 1000 g/ha [6] [%],pest or weed control at 1000 g/ha (Setaria faberi (SETFA) [7]) [%],pest or weed control at 1000 g/ha (Avena fatua (AVEFA) [8]) [%],pest or weed control at 1000 g/ha [9] [%],pest or weed control at 1000 g/ha [10] [%],pest or weed control at 1000 g/ha (Solanum nigrum (SOLNI) [11]) [%],pest or weed control at 1000 g/ha [12] [%],other results
Cc1ccc(-c2ccc(F)cc2F)cc1C1=C(O)C(C)(C)OC(C)(C)C1=O [Compound A-27],90,60,10,100,20,80,100,80,100,100,50,80,–
CCc1ccc(-c2ccc(Cl)cc2)cc1C1=C(OC(=O)C(C)(C)OC)C(C)(C)OC(C)(C)C1=O [Compound D-20],90,0,0,60,0,30,100,90,20,100,0,100,–
Cc1ccc(-c2cccc(C(F)(F)F)c2)cc1C1=C(O)C(C)(C)OC(C)(C)C1=O [Compound A-15],50,50,100,100,100,50,10,20,90,50,10,10,–
Cc1ccc(-c2ccc(C(C)(C)C)cc2)cc1C1=C(O)C(C)(C)OC(C)(C)C1=O [Compound A-21],100,50,60,90,50,100,60,60,20,90,20,40,–
CCc1ccc(-c2ccc(Cl)cc2)cc1C1=C(OC(C)=O)C(C)(C)OC(C)(C)C1=O [Compound D-7],100,30,0,90,0,60,100,70,0,100,0,90,–
Cc1ccc(-c2ccc(Cl)nc2C)cc1C1=C(O)C(C)(C)OC(C)(C)C1=O [Compound A-56],0,40,0,30,20,10,80,50,20,80,20,80,–
Cc1ccc(-c2ccc(Cl)c(F)c2)cc1C1=C(O)C(C)(C)C(=O)C(C)(C)C1=O [Compound B-23],–,–,–,–,–,–,–,–,–,–,–,–,pest or weed control at 250 g/ha (Setaria faberi (SETFA) [1]): 0%; pest or weed control at 250 g/ha (Avena fatua (AVEFA) [2]): 0%; pest or weed control at 250 g/ha [3]: 0%; pest or weed control at 250 g/ha [4]: 10%; pest or weed control at 250 g/ha (Solanum nigrum (SOLNI) [5]): 0%; pest or weed control at 250 g/ha [6]: 0%; pest or weed control at 250 g/ha (Setaria faberi (SETFA) [7]): 70%; pest or weed control at 250 g/ha (Avena fatua (AVEFA) [8]): 0%; pest or weed control at 250 g/ha [9]: 0%; pest or weed control at 250 g/ha [10]: 60%; pest or weed control at 250 g/ha (Solanum nigrum (SOLNI) [11]): 0%; pest or weed control at 250 g/ha [12]: 30%
CCc1ccc(-c2ccc(Cl)cc2OC)cc1C1=C(O)C(C)(C)C(=O)C(C)(C)C1=O [Compound B-25],–,–,–,–,–,–,–,–,–,–,–,–,pest or weed control at 250 g/ha (Setaria faberi (SETFA) [1]): 0%; pest or weed control at 250 g/ha (Avena fatua (AVEFA) [2]): 0%; pest or weed control at 250 g/ha [3]: 0%; pest or weed control at 250 g/ha [4]: 0%; pest or weed control at 250 g/ha (Solanum nigrum (SOLNI) [5]): 0%; pest or weed control at 250 g/ha [6]: 0%; pest or weed control at 250 g/ha (Setaria faberi (SETFA) [7]): 20%; pest or weed control at 250 g/ha (Avena fatua (AVEFA) [8]): 0%; pest or weed control at 250 g/ha [9]: 0%; pest or weed control at 250 g/ha [10]: 70%; pest or weed control at 250 g/ha (Solanum nigrum (SOLNI) [11]): 0%; pest or weed control at 250 g/ha [12]: 20%
